The test system of this test is NCI-H196 SCLC complex tumor spheroid viability. The experiment in a line: Anticancer human tumor NCI-H196 cell line growth inhibition.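 For all read-outs here: spheroids exposed to compounds for 7 days before readout.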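 For viability, T/C: 100% = DMSO vehicle control wells.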 Particulars: for viability, T/C: stronger effect = lower value. From the text:
Multicellular complex tumor spheroid response to DNA repair inhibitors in combination with DNA-damaging drugs
This study explores the anticancer activities of DNA-damaging drugs and inhibitors of DNA damage repair, both as single agents and in combinations. Complex tumor spheroids comprised of malignant cells, endothelial cells and mesenchymal stem cells served as an in vitro model for human solid tumors. This model system incorporates physiologically relevant features and patient-derived or established malignant cell lines with clinically relevant genetic alterations from many tumor types. Twenty-six patient-derived or established malignant cell lines were evaluated representing sarcoma, melanoma, small cell lung cancer (SCLC), non-small cell lung cancer (NSCLC), as well as bladder, ovarian and pancreatic cancers. The concentration ranges selected for each drug and investigational agent were based upon clinically achievable concentrations if the clinical Cmax of the agent was known.
Compounds. The drugs and compounds olaparib (NSC753686), talazoparib (NSC767125), berzosertib (NSC777718), elimusertib (NSC800525), nedisertib (NSC802822), VX-984 (NSC792969), AZD-1390 (NSC803789), temozolomide (NSC362856), topotecan (NSC609699), trabectedin (NSC813783), staurosporine (NSC755774), and gemcitabine (NSC613327) were obtained from the National Cancer Institute (NCI) Developmental Therapeutics Program Chemical Repository. The FDA-approved anticancer drug set is available from the Developmental Therapeutics Program at https://dtp.cancer.gov/organization/dscb/obtaining/available_plates.htm. […] The stock solutions were prepared in dimethyl sulfoxide (DMSO, Sigma-Aldrich, St. Louis, MO, cat. D2650) at 400-fold the tested concentration and stored at -70 degrees C. Prior to their use, the stock solutions were diluted in fresh medium and the final DMSO concentration in the assay was 0.25% (v/v). All drugs and investigational agents were tested over a range starting from a high concentration at or near the clinical Cmax and decreasing in half-log increments. If the clinical Cmax for an agent had not been determined, the highest concentration tested was 10 microM.
Cell Lines. The patient-derived cancer cell (PDC) lines: 156681-154-R-J1-PDC, 283228-195-R-J1-PDC, 287954-098-R-J1-PDC, 292921-168-R-J2-PDC, 349418-098-R-PDC, 425362-245-T-J1-PDC, 556581-035-R-J1-PDC, and BL0293-F563-PDC were received from the NCI Patient-Derived Models Repository (PDMR, https://pdmr.cancer.gov). The established cell lines HS-SY-2 (RRID:CVCL_8719), MPNST, and SYO-1 (RRID:CVCL_7146) were obtained from the Sloan Kettering Institute. The alveolar soft parts sarcoma cell line ASPS-1 (RRID:CVCL_S738) was established at the NCI and grown from internal seed stocks. The following established cell lines were purchased from the American Type Culture Collection (ATCC, Manassas, VA): G-401 (ATCC, cat. CRL-1441, RRID:CVCL_0270), SW982 (ATCC, cat. HTB-93, RRID:CVCL_1734), VA-ES-BJ (ATCC, cat. CRL-2138, RRID:CVCL_1785), NCI-H719 (ATCC, cat. CRL-5837, RRID:CVCL_1582), NCI-H196 (ATCC, cat. CRL-5823, RRID:CVCL_1509), NCI-H841 (ATCC, cat. CRL-5845, RRID:CVCL_1595), NCI-H1618 (ATCC, cat. CRL-5879, RRID:CVCL_1480), NCI-H1876 (ATCC, cat. CRL-5902, RRID:CVCL_1503), DMS 114 (ATCC, cat. CRL-2066; RRID:CVCL_1174), NCI-H211 (ATCC, cat. CRL-5824; RRID:CVCL_1529), and SW 1271 (ATCC, cat. CRL-2177, RRID:CVCL_1716). The small cell lung cancer cell line COR-L88 was purchased from Sigma-Aldrich (cat. 92031917-1VL, RRID:CVCL_1141). The non-small cell lung cancer cell lines NCI-H226 (RRID:CVCL_1544) and NCI-H322M (RRID:CVCL_1557) were established at the NCI and grown from internal seed stocks. Pooled donor human umbilical vein endothelial cells (HUVEC, Lonza, cat. CC-2519) and human mesenchymal stem cells (hMSC, Lonza, cat. PT-2501) were purchased from Lonza (Walkersville, MD).
Cell Culture. All cells were maintained in an incubator at 37 degrees C and 5% CO2 with 95% humidity. […]

Setting [1] is: compound alone, run of 12/16/2019.

Experimental findings from PubChem BioAssay AID1845208 (Molecular Pharmacology Branch, DTP, NCI, 2023) are described below.

Where “and” joins values, the source holds several entries; their conditions need not be identical. Equal values may be shown once.

One may read the viability, T/C as the result in the treated group divided by that in the control group, in per cent. The term IC50 denotes the concentration needed to halve the response being measured. Turning to `CC(C)n1c(=O)n(C)c2cnc3cc(F)c(-c4ccc(OCCCN5CCCCC5)nc4)cc3c21`, the viability, T/C by setting is: (compound 0.0316 µM) 102% (2×) and 93.8%; (compound 0.1 µM) 106% and 97.1% and 100%; (compound 0.316 µM) 105% and 95.7% and 95.9%; (compound 1 µM) 108% and 102% and 105%; (compound 3.16 µM) 113% and 112% and 110%; (compound 10 µM) 108% and 110% and 111%. For the same compound, where the note is “curve of compound”, the IC50 is greater than 10000 nM.

For the compound `CC1COCCN1c1cc(-c2ccnn2C)c2ccnc(-c3ccn[nH]3)c2n1` (centres undefined), the viability, T/C reads like this: (compound 0.0316 µM) 85.4% and 90.9% and 88.6%; (compound 0.1 µM) 76.7% and 72.3% and 79.4%; (compound 0.316 µM) 65.1% and 66% and 67.1%; (compound 1 µM) 60.3% and 53.1% and 61.3%; (compound 3.16 µM) 53% (2×) and 49.1%; (compound 10 µM) 44.3% and 46.2% and 48.6%. In addition, under “curve of compound”, the IC50 was 4360 nM and 2770 nM and 7310 nM.

Regarding `CC[C@@]1(O)C(=O)OCc2c1cc1n(c2=O)Cc2cc3c(CN(C)C)c(O)ccc3nc2-1`, the viability, T/C was 101% [middle of 10 runs] (compound 0.003 µM); 99.5% [middle of 10 runs] (compound 0.00949 µM); 95.5% [middle of 10 runs] (compound 0.03 µM); 102% [middle of 10 runs] (compound 0.0949 µM); 105% [middle of 10 runs] (compound 0.3 µM). The IC50 is greater than 300 nM (compound alone, run of 11/07/2019) and greater than 300 nM under setting [1].

On to `CNCc1ccc(-c2cc(-c3nc(-c4ccc(S(=O)(=O)C(C)C)cc4)cnc3N)on2)cc1`, for which the viability, T/C was 101% and 97.8% and 106% (compound 0.00949 µM); 108% and 111% and 109% (compound 0.03 µM); 98% and 119% and 105% (compound 0.0949 µM); 106% and 107% and 101% (compound 0.3 µM); 95% and 98.1% and 96.3% (compound 0.949 µM); 88.5% and 83.7% and 94% (compound 3 µM). Moreover, the concentration for half-maximal inhibition (IC50) (curve of compound) is greater than 3000 nM.

Regarding `COc1cc(C)[nH]c(=O)c1CN1CCc2c(Cl)cc(C(OC)C3COC3)c(Cl)c2C1=O` (centres undefined), the viability, T/C is 93.9% and 96.1% and 106% (compound 0.0316 µM); 101% (2×) and 102% (compound 0.1 µM); 92.7% and 96% and 91.1% (compound 0.316 µM); 101% and 94.2% and 103% (compound 1 µM); 97.1% and 89.7% and 101% (compound 3.16 µM); 94.5% and 97.7% and 100% (compound 10 µM). The half-maximal inhibitory concentration (IC50) (curve of compound) was greater than 10000 nM.

As to `COc1cc2c(cc1O)CCNC21CSC2c3c(OC(C)=O)c(C)c4c(c3C(COC1=O)N1C(O)C3Cc5cc(C)c(OC)c(O)c5C(C21)N3C)OCO4` (centres undefined), the viability, T/C reads like this: (compound 30 pM) 103% [middle of 10 runs]; (compound 94.9 pM) 105% [middle of 10 runs]; (compound 0.0003 µM) 103% [middle of 10 runs]; (compound 0.000949 µM) 84.7% [middle of 10 runs]; (compound 0.003 µM) 7.79% [middle of 10 runs]. Besides, under setting [1], the IC50 was 1.62 nM [middle of 8 runs].

Consider `Cc1cc(C)c(CNC(=O)c2cc(-c3ccc(CN4CCOCC4)cc3)cc3c2cnn3C2CCCC2)c(=O)[nH]1`, for which the viability, T/C is 104% and 97.2% and 99.1% (compound 0.0316 µM); 96.1% and 97.9% and 103% (compound 0.1 µM); 93.3% and 97% and 102% (compound 0.316 µM); 91.3% and 96.2% and 98.9% (compound 1 µM); 101% and 94% and 103% (compound 3.16 µM); 106% and 103% and 111% (compound 10 µM). Further, where the note is “curve of compound”, the IC50 was greater than 10000 nM.

Regarding `Cc1sc2c(c1C)C(c1ccc(Cl)cc1)=NC(CC(=O)Nc1ccc(O)cc1)c1nnc(C)n1-2` (centres undefined), the viability, T/C runs as follows: (compound 0.00949 µM) 102% and 106% and 98%; (compound 0.03 µM) 101% and 108% and 93.3%; (compound 0.0949 µM) 91.3% and 94.5% and 91.4%; (compound 0.3 µM) 85.1% and 78% and 76.3%; (compound 0.949 µM) 41.5% and 43.1% and 38.3%; (compound 3 µM) 23% and 23.8% and 20.7%. For the same compound, where the note is “curve of compound”, the IC50 was 763 nM and 770 nM and 666 nM.

`Cn1ncnc1[C@H]1c2n[nH]c(=O)c3cc(F)cc(c23)N[C@@H]1c1ccc(F)cc1`: the viability, T/C was 108% and 104% and 101% (compound 0.00949 µM); 102% and 96.7% and 99% (compound 0.03 µM); 103% and 98.2% and 102% (compound 0.0949 µM); 102% and 98.1% and 100% (compound 0.3 µM); 104% and 96.5% and 89.3% (compound 0.949 µM); 108% and 92% and 87.2% (compound 3 µM). The IC50 (curve of compound) was greater than 3000 nM.

Turning to `[2H]c1nc(C)nc([2H])c1-c1cc(NC[C@@H](C)c2cccc3c(C(=O)NC)ccnc23)ncn1`, the viability, T/C (compound 0.0316 µM) is 104% and 105% and 99.6%; the viability, T/C (compound 0.1 µM) was 102% and 99.5% and 104%; the viability, T/C (compound 0.316 µM) was 98.1% and 106% and 96.8%; the viability, T/C (compound 1 µM) was 99.2% and 106% and 97.2%; the viability, T/C (compound 3.16 µM) is 103% and 99.3% and 102%; the viability, T/C (compound 10 µM) was 103% and 107% and 104%. Further, the half-inhibitory concentration (IC50) (curve of compound) was greater than 10000 nM.
